Experimental data as given in patent US7851474B2, “Dipiperazinyl ketones and related analogues” (Neurogen Corporation, priority 2005, dated 2010).

biological target: T1, chimeric human H3 receptor (Homo sapiens, UniProt Q9Y5N1, E19D); experiment: Chimeric human H3 receptor GTP binding assay (agonist-stimulated GTP-gamma35S binding, Example 7); type: biochemical; settings: not given
T1 construct: made in house; host or cells: Sf9 insect cells (baculovirus infection); P2 membrane preparation
Procedure, shortened: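 Sf9 membranes co-expressing the chimeric receptor and heterotrimeric G-protein subunits, 35 μg protein per tube, in pH 7.4 Tris buffer with 10 μM GDP. Test compounds at 10^−10 to 10^−6 M with 1 μM histamine, 60 min at room temperature. Filter-bound GTP-gamma^35S read by scintillation; IC50 from non-linear regression of dose-response curves.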

T1 sequence (Q9Y5N1 with tags, fused parts or gaps E19D): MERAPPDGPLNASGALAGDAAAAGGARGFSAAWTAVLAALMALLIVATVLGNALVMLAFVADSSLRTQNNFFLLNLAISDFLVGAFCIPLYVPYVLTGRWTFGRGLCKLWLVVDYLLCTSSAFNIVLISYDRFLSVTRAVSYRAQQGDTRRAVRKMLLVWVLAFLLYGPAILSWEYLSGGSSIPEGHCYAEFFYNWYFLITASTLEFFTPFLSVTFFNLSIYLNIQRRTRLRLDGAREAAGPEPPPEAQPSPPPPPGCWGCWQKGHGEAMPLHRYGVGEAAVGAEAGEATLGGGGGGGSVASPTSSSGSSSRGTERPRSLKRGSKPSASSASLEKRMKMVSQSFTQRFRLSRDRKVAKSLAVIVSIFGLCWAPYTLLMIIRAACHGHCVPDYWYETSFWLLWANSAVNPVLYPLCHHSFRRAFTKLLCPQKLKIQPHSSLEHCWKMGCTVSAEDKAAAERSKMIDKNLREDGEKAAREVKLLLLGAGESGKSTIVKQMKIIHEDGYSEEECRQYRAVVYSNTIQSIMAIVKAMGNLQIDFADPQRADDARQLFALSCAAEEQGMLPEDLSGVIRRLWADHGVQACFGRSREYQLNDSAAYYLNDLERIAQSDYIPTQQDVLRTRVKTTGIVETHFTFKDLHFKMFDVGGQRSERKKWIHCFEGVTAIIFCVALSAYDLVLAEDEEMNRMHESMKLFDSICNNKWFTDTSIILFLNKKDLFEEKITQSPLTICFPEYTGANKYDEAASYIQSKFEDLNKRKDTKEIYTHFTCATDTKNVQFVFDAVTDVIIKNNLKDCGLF

Row | Compound | Ki
1 | O=C(CN1CCN(c2ccc(C(F)(F)F)cc2)CC1)N1CCN(C2CCCCC2)CC1 [Compound 803, 1-cyclohexyl-4-({4-[4-(trifluoromethyl)phenyl]piperazin-1-yl}acetyl)piperazine] | < 1000 nM

same assay, conditions: Table II "Ki", symbol "*": Ki in the assay of Example 7; read-out: Ki

Row | Compound | Ki
2 | CCCOc1ccc(-c2ccc(N3CCN(CC(=O)N4CCN(C5CCC5)CC4)CC3)cc2)cc1 [Compound 789, 1-cyclobutyl-4-{[4-(4′-propoxybiphenyl-4-yl)piperazin-1-yl]acetyl}piperazine] | < 1000 nM
3 | O=C(CN1CCN(c2ccc(-c3ccncc3)cc2)CC1)N1CCN(C2CCC2)CC1 [Compound 791, 1-cyclobutyl-4-{[4-(4-pyridin-4-ylphenyl)piperazin-1-yl]acetyl}piperazine] | < 1000 nM
4 | COc1ccc(F)cc1-c1ccc(N2CCN(CC(=O)N3CCN(C4CCC4)CC3)CC2)cc1 [Compound 792, 1-cyclobutyl-4-{[4-(5′-fluoro-2′-methoxybiphenyl-4-yl)piperazin-1-yl]acetyl}piperazine] | < 1000 nM
5 | COc1ccc(C(C)C)cc1-c1ccc(N2CCN(CC(=O)N3CCN(C4CCC4)CC3)CC2)cc1 [Compound 793, 1-cyclobutyl-4-{[4-(5′-isopropyl-2′-methoxybiphenyl-4-yl)piperazin-1-yl]acetyl}piperazine] | < 1000 nM
6 | O=C(CN1CCN(C(=O)C2CCCO2)CC1)N1CCN(C2CCC2)CC1 (stereo not shown) [Compound 801, 1-cyclobutyl-4-{[4-(tetrahydrofuran-2-ylcarbonyl)piperazin-1-yl]acetyl}piperazine] | < 1000 nM
7 | O=C(CN1CCN(c2ccc(F)c(C(F)(F)F)c2)CC1)N1CCN(C2CCCCC2)CC1 [Compound 804, 1-cyclohexyl-4-({4-[4-fluoro-3-(trifluoromethyl)phenyl]piperazin-1-yl}acetyl)piperazine] | < 1000 nM
8 | O=C(CN1CCN(c2ccccc2)CC1)N1CCN(C2CCCCC2)CC1 [Compound 805, 1-cyclohexyl-4-[(4-phenylpiperazin-1-yl)acetyl]piperazine] | < 1000 nM
9 | O=C(CN1CCC(N2CCCC2)CC1)N1CCN(C2CCCCC2)CC1 [Compound 806, 1-cyclohexyl-4-[(4-pyrrolidin-1-ylpiperidin-1-yl)acetyl]piperazine] | < 1000 nM
10 | O=C(CN1CCN(c2ccc(Cl)c(Cl)c2)CC1)N1CCN(C2CCCCC2)CC1 [Compound 815, 1-cyclohexyl-4-{[4-(3,4-dichlorophenyl)piperazin-1-yl]acetyl}piperazine] | < 1000 nM
11 | COc1ccc(N2CCN(CC(=O)N3CCN(C4CCCCC4)CC3)CC2)cc1OC [Compound 816, 1-cyclohexyl-4-{[4-(3,4-dimethoxyphenyl)piperazin-1-yl]acetyl}piperazine] | < 1000 nM
12 | Cc1ccc(N2CCN(CC(=O)N3CCN(C4CCCCC4)CC3)CC2)cc1C [Compound 817, 1-cyclohexyl-4-{[4-(3,4-dimethylphenyl)piperazin-1-yl]acetyl}piperazine] | < 1000 nM
13 | O=C(CN1CCN(c2cccc(F)c2)CC1)N1CCN(C2CCCCC2)CC1 [Compound 819, 1-cyclohexyl-4-{[4-(3-fluorophenyl)piperazin-1-yl]acetyl}piperazine] | < 1000 nM
14 | COc1cccc(N2CCN(CC(=O)N3CCN(C4CCCCC4)CC3)CC2)c1 [Compound 820, 1-cyclohexyl-4-{[4-(3-methoxyphenyl)piperazin-1-yl]acetyl}piperazine] | < 1000 nM
15 | Cc1cccc(N2CCN(CC(=O)N3CCN(C4CCCCC4)CC3)CC2)c1 [Compound 821, 1-cyclohexyl-4-{[4-(3-methylphenyl)piperazin-1-yl]acetyl}piperazine] | < 1000 nM
16 | O=C(CN1CCN(c2ccc(F)cc2)CC1)N1CCN(C2CCCCC2)CC1 [Compound 822, 1-cyclohexyl-4-{[4-(4-fluorophenyl)piperazin-1-yl]acetyl}piperazine] | < 1000 nM
17 | COc1ccc(N2CCN(CC(=O)N3CCN(C4CCCCC4)CC3)CC2)cc1 [Compound 823, 1-cyclohexyl-4-{[4-(4-methoxyphenyl)piperazin-1-yl]acetyl}piperazine] | < 1000 nM
18 | Cc1ccc(N2CCN(CC(=O)N3CCN(C4CCCCC4)CC3)CC2)cc1 [Compound 824, 1-cyclohexyl-4-{[4-(4-methylphenyl)piperazin-1-yl]acetyl}piperazine] | < 1000 nM
19 | O=C(CN1CCN(c2ccc([N+](=O)[O-])cc2)CC1)N1CCN(C2CCCCC2)CC1 [Compound 825, 1-cyclohexyl-4-{[4-(4-nitrophenyl)piperazin-1-yl]acetyl}piperazine] | < 1000 nM

Now from value to compound:

Row | Ki | Compound
20 | < 1000 nM | O=C(CN1CCN(c2cccc(-c3ccc(F)cc3)c2)CC1)N1CCN(C2CCC2)CC1 [Compound 773, 1-cyclobutyl-4-{[4-(4′-fluorobiphenyl-3-yl)piperazin-1-yl]acetyl}piperazine]
21 | < 1000 nM | O=C(CN1CCN(c2ccc(-c3ccc(F)cc3)cc2)CC1)N1CCN(C2CCC2)CC1 [Compound 774, 1-cyclobutyl-4-{[4-(4′-fluorobiphenyl-4-yl)piperazin-1-yl]acetyl}piperazine]
22 | < 1000 nM | O=C(CN1CCN(c2ccc(F)cc2)CC1)N1CCN(C2CCC2)CC1 [Compound 775, 1-cyclobutyl-4-{[4-(4-fluorophenyl)piperazin-1-yl]acetyl}piperazine]
23 | < 1000 nM | CC(C)c1ccc(-c2ccc(N3CCN(CC(=O)N4CCN(C5CCC5)CC4)CC3)cc2)cc1 [Compound 778, 1-cyclobutyl-4-{[4-(4′-isopropylbiphenyl-4-yl)piperazin-1-yl]acetyl}piperazine]
24 | < 1000 nM | COc1ccc(-c2ccc(N3CCN(CC(=O)N4CCN(C5CCC5)CC4)CC3)cc2)c(C)c1 [Compound 779, 1-cyclobutyl-4-{[4-(4′-methoxy-2′-methylbiphenyl-4-yl)piperazin-1-yl]acetyl}piperazine]
25 | < 1000 nM | COc1ccc(-c2ccc(N3CCN(CC(=O)N4CCN(C5CCC5)CC4)CC3)cc2)cc1C [Compound 780, 1-cyclobutyl-4-{[4-(4′-methoxy-3′-methylbiphenyl-4-yl)piperazin-1-yl]acetyl}piperazine]
26 | < 1000 nM | COc1ccc(-c2ccc(N3CCN(CC(=O)N4CCN(C5CCC5)CC4)CC3)cc2)cc1 [Compound 781, 1-cyclobutyl-4-{[4-(4′-methoxybiphenyl-4-yl)piperazin-1-yl]acetyl}piperazine]
27 | < 1000 nM | COc1ccc(N2CCN(CC(=O)N3CCN(C4CCC4)CC3)CC2)cc1 [Compound 782, 1-cyclobutyl-4-{[4-(4-methoxyphenyl)piperazin-1-yl]acetyl}piperazine]
28 | < 1000 nM | Cc1ccc(-c2ccc(N3CCN(CC(=O)N4CCN(C5CCC5)CC4)CC3)cc2)cc1 [Compound 784, 1-cyclobutyl-4-{[4-(4′-methylbiphenyl-4-yl)piperazin-1-yl]acetyl}piperazine]
29 | < 1000 nM | Cc1ccc(N2CCN(CC(=O)N3CCN(C4CCC4)CC3)CC2)cc1 [Compound 785, 1-cyclobutyl-4-{[4-(4-methylphenyl)piperazin-1-yl]acetyl}piperazine]
30 | < 1000 nM | O=C(CN1CCN(c2ccc([N+](=O)[O-])cc2)CC1)N1CCN(C2CCC2)CC1 [Compound 786, 1-cyclobutyl-4-{[4-(4-nitrophenyl)piperazin-1-yl]acetyl}piperazine]
31 | < 1000 nM | O=C(CN1CCN(c2ccc(-c3ccc(Oc4ccccc4)cc3)cc2)CC1)N1CCN(C2CCC2)CC1 [Compound 787, 1-cyclobutyl-4-{[4-(4′-phenoxybiphenyl-4-yl)piperazin-1-yl]acetyl}piperazine]
